SMILES strings stand for the structures. Where a name gives a salt, the structure may show the parent alone.

The target of one test is T1, human factor XIa (Homo sapiens, UniProt P03951).
T1 construct: purchased Kordia
Nature of the test: Measurement of FXIa inhibition (fluorogenic peptide substrate Boc-Glu(OBzl)-Ala-Arg-AMC). In kind it is biochemical. The following applies: factor XIa from Kordia, 15 min preincubation, 30 min at 22° C., fluorescence. The procedure:
To determine the factor XIa inhibition of the substances according to the invention, a biochemical test system is used which utilizes the reaction of a peptidic factor XIa substrate to determine the enzymatic activity of human factor XIa. Here, factor XIa cleaves from the peptic factor XIa substrate the C-terminal aminomethylcoumarin (AMC), the fluorescence of which is measured. The determinations are carried out in microtitre plates.
Test substances are dissolved in dimethyl sulphoxide and serially diluted in dimethyl sulphoxide (3000 μM to 0.0078 μM; resulting final concentrations in the test: 50 μM to 0.00013 μM). In each case 1 μl of the diluted substance solutions are placed into the wells of white microtitre plates from Greiner (384 wells). Subsequently, the following are added successively: 20 μl of assay buffer (50 mmol/l Tris buffer pH 7.4; 100 mmol/l sodium chloride; 5 mmol/l calcium chloride; 0.1% bovine serum albumin) and 20 μl of factor XIa from Kordia (0.45 nM in assay buffer). After 15 min of incubation, the enzyme reaction is started by addition of 20 μl of the factor XIa substrate Boc-Glu(OBzl)-Ala-Arg-AMC dissolved in assay buffer (10 μM in assay buffer) from Bachem, the mixture is incubated at room temperature (22° C.) for 30 min and fluorescence is then measured (excitation: 360 nm, emission: 460 nm). The measured emissions of the test batches with test substance are compared to those of control batches without test substance (only dimethyl sulphoxide instead of test substance in dimethyl sulphoxide), and IC50 values are calculated from the concentration/activity relationships.

The next test concerns human and animal plasma. Nature of the test: Determination of the anticoagulatory activity: activated partial thromboplastin time (aPTT) in plasma. It is filed as biochemical. Conditions: in vitro in plasma, C.K. Prest kit, 3 min at 37° C. As to the method: The anticoagulatory activity of the test substances is determined in vitro in human and animal plasma (for example mouse, rat, rabbit, pig and dog plasma). To this end, blood is drawn off in a mixing ratio of sodium citrate/blood of 1:9 using a 0.11 molar sodium citrate solution as receiver. Immediately after the blood has been drawn off, it is mixed thoroughly and centrifuged at about 4000 g for 15 minutes. The supernatant is pipetted off.
The activated partial thromboplastin time (aPTT) is determined in the presence of varying concentrations of test substance or the corresponding solvent using a commercial test kit (C.K. Prest from Diagnostica Stago). The test compounds are incubated with the plasma and the PTT reagent (cephalin, kaolin) at 37° C. for 3 minutes. Coagulation is then started by addition of a 25 mM aqueous calcium chloride solution, and the time when coagulation occurs is determined. The concentration of test substance which brings about a 1.5-fold extension of the aPTT is determined Activity data from this test are listed in Table B below: […]

T1 sequence (P03951 388-625 limits assumed): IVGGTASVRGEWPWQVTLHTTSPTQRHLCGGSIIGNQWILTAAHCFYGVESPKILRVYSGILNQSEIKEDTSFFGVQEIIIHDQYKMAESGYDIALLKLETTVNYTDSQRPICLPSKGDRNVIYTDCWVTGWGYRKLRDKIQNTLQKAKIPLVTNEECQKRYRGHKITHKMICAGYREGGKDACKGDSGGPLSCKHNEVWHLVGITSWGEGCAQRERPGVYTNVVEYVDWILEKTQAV
T1 sequence (P03951 19-387 partner limits assumed): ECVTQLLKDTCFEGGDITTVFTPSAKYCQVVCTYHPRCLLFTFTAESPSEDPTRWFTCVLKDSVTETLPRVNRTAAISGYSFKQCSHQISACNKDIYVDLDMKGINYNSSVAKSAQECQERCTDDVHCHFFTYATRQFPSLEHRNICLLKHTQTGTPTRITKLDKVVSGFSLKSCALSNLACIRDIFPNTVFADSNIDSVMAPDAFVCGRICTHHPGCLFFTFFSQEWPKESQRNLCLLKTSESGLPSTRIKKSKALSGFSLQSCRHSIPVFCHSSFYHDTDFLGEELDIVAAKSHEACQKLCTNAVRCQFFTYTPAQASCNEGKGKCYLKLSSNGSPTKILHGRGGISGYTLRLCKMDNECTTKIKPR

Usually IC50 stands for the concentration at which inhibition is half-maximal. `NCC1CCC(C(=O)N[C@@H](Cc2ccc(-c3cnc4[nH]ccc4c3)cc2)C(=O)Nc2ccc(-c3nn[nH]n3)cc2)CC1` (stereo partly drawn) [Example 2, N-alpha-{[trans-4-(Aminomethyl)cyclohexyl]carbonyl}-4-(1H-pyrrolo[2,3-b]pyridin-5-yl)-N-[4-(2H-tetrazol-5-yl)phenyl]-L-phenylalaninamide hydrochloride]: the IC50 against human factor XIa was found to be 2.6 nM.
The molecule `NCC1CCC(C(=O)N[C@@H](Cc2ccc(-c3cncc4ccccc34)cc2)C(=O)Nc2ccc(-c3nn[nH]n3)cc2)CC1` (stereo partly drawn) [Example 3, N-alpha-{[trans-4-(Aminomethyl)cyclohexyl]carbonyl}-4-isoquinolin-4-yl-N-[4-(2H-tetrazol-5-yl)phenyl]-L-phenylalaninamide hydrochloride] registered an IC50 against human factor XIa of 1.4 nM. Also, in the test with human and animal plasma, the “aPTT (concentration of test substance which brings about a 1.5-fold extension of the aPTT)” value worked out at 0.14 µmol/L.
As for `Cn1c(=O)[nH]c2ccc(-c3ccc(C[C@H](NC(=O)C4CCC(CN)CC4)C(=O)Nc4ccc(-c5nn[nH]n5)cc4)cc3)cc21` (stereo partly drawn) [Example 4, N-alpha-{[trans-4-(Aminomethyl)cyclohexyl]carbonyl}-4-(3-methyl-2-oxo-2,3-dihydro-1H-benzimidazol-5-yl)-N-[4-(2H-tetrazol-5-yl)phenyl]-L-phenylalaninamide hydrochloride], the IC50 at human factor XIa worked out at 5.6 nM. The “aPTT (concentration of test substance which brings about a 1.5-fold extension of the aPTT)” value in the test with human and animal plasma came out at 0.24 µmol/L.
In the same order, the values of `Cn1cc(-c2ccc(C[C@H](NC(=O)C3CCC(CN)CC3)C(=O)Nc3ccc(-c4nn[nH]n4)cc3)cc2)c(=O)[nH]c1=O` (stereo partly drawn) [Example 5, N-alpha-{[trans-4-(Aminomethyl)cyclohexyl]carbonyl}-4-(1-methyl-2,4-dioxo-1,2,3,4-tetrahydropyrimidin-5-yl)-N-[4-(2H-tetrazol-5-yl)phenyl]-L-phenylalaninamide hydrochloride] are 5.1 nM and 0.06 µmol/L.
The corresponding values for `NC[C@H]1CC[C@H](C(=O)N[C@@H](Cc2ccc(-c3cccc4[nH]ncc34)cc2)C(=O)Nc2ccc(-c3nn[nH]n3)cc2)CC1` [Example 6, N-alpha-{[trans-4-(Aminomethyl)cyclohexyl]carbonyl}-4-(1H-indazol-4-yl)-N-[4-(2H-tetrazol-5-yl)phenyl]-L-phenylalaninamide hydrochloride] are 9 nM and 0.41 µmol/L.
Molecule `Cc1nc2cc(-c3ccc(C[C@H](NC(=O)[C@H]4CC[C@H](CN)CC4)C(=O)Nc4ccc(-c5nn[nH]n5)cc4)cc3)ccc2[nH]1` [Example 7, N-alpha-{[trans-4-(Aminomethyl)cyclohexyl]carbonyl}-4-(2-methyl-1H-benzimidazol-5-yl)-N-[4-(2H-tetrazol-5-yl)phenyl]-L-phenylalaninamide hydrochloride] came in with an IC50 on human factor XIa of 4.6 nM. In other words, the single-digit nanomolar range.
Same read-out and setting: then `NC[C@H]1CC[C@H](C(=O)N[C@@H](Cc2ccc(-c3cccc4[nH]nc(N)c34)cc2)C(=O)Nc2ccc(-c3nn[nH]n3)cc2)CC1` [Example 10, 4-(3-Amino-1H-indazol-4-yl)-N-alpha-{[trans-4-(aminomethyl)cyclohexyl]carbonyl}-N-[4-(2H-tetrazol-5-yl)phenyl]-L-phenylalaninamide hydrochloride], with 1.9 nM.
Still for that read-out and setting: the result for `Cn1cc(-c2ccc(C[C@H](NC(=O)[C@H]3CC[C@H](CN)CC3)C(=O)Nc3ccc(-c4nn[nH]n4)cc3)cc2)c(=O)n(C)c1=O` [Example 11, N-alpha-{[trans-4-(Aminomethyl)cyclohexyl]carbonyl}-4-(1,3-dimethyl-2,4-dioxo-1,2,3,4-tetrahydropyrimidin-5-yl)-N-[4-(2H-tetrazol-5-yl)phenyl]-L-phenylalaninamide hydrochloride] reads 3.2 nM.
In the case of `NCCn1cnc2cc(-c3ccc(C[C@H](NC(=O)C4CCC(CN)CC4)C(=O)Nc4ccc(-c5nn[nH]n5)cc4)cc3)ccc21` (stereo partly drawn) [Example 13, 4-[1-(2-Aminoethyl)-1H-benzimidazol-5-yl]-N-alpha-{[trans-4-(aminomethyl)cyclohexyl]-carbonyl]-N-[4-(2H-tetrazol-5-yl)phenyl]-L-phenylalaninamide hydrochloride], the IC50 against human factor XIa was 6.6 nM. The “aPTT (concentration of test substance which brings about a 1.5-fold extension of the aPTT)” value in the test on human and animal plasma was 0.18 µmol/L.
Turning to `NC[C@H]1CC[C@H](C(=O)N[C@@H](Cc2ccc(-c3c[nH]c(=O)[nH]c3=O)cc2)C(=O)Nc2ccc(-c3nn[nH]n3)cc2)CC1` [Example 14, N-alpha-{[trans-4-(Aminomethyl)cyclohexyl]carbonyl}-4-(2,4-dioxo-1,2,3,4-tetrahydropyrimidin-5-yl)-N-[4-(2H-tetrazol-5-yl)phenyl]-L-phenylalaninamide hydrochloride], the IC50 against human factor XIa turned out to be 6.8 nM.
`Cn1cnc2ccc(-c3ccc(C[C@H](NC(=O)[C@H]4CC[C@H](CN)CC4)C(=O)Nc4ccc(-c5nn[nH]n5)cc4)cc3)cc21` [Example 15, N-alpha-{[trans-4-(Aminomethyl)cyclohexyl]carbonyl}-4-(1-methyl-1H-benzimidazol-6-yl)-N-[4-(2H-tetrazol-5-yl)phenyl]-L-phenylalaninamide hydrochloride] displayed an IC50 against human factor XIa of 3.8 nM.
Still for that read-out and setting: then `Cn1cnc2cc(-c3ccc(C[C@H](NC(=O)[C@H]4CC[C@H](CN)CC4)C(=O)Nc4ccc(-c5nn[nH]n5)cc4)cc3)ccc21` [Example 16, N-alpha-{[trans-4-(Aminomethyl)cyclohexyl]carbonyl}-4-(1-methyl-1H-benzimidazol-5-yl)-N-[4-(2H-tetrazol-5-yl)phenyl]-L-phenylalaninamide hydrochloride], with 3.2 nM; and `NC[C@H]1CC[C@H](C(=O)N[C@@H](Cc2ccc(-c3cn(Cc4ccccc4)c(=O)[nH]c3=O)cc2)C(=O)Nc2ccc(-c3nn[nH]n3)cc2)CC1` [Example 17, N-alpha-{[trans-4-(Aminomethyl)cyclohexyl]carbonyl}-4-(1-benzyl-2,4-dioxo-1,2,3,4-tetrahydropyrimidin-5-yl)-N-[4-(2H-tetrazol-5-yl)phenyl]-L-phenylalaninamide hydrochloride], with 0.5 nM; and `Cc1ccc2[nH]ncc2c1-c1ccc(C[C@H](NC(=O)[C@H]2CC[C@H](CN)CC2)C(=O)Nc2ccc(-c3nn[nH]n3)cc2)cc1` [Example 18, N-alpha-{[trans-4-(Aminomethyl)cyclohexyl]carbonyl}-4-(5-methyl-1H-indazol-4-yl)-N-[4-(2H-tetrazol-5-yl)phenyl]-L-phenylalaninamide hydrochloride], with 2.5 nM.
Consider `Cc1nc2c(cc1-c1ccc(C[C@H](NC(=O)[C@H]3CC[C@H](CN)CC3)C(=O)Nc3ccc4[nH]c(=O)[nH]c4c3)cc1)NCCN2` [Example 28, N-alpha-{[trans-4-(Aminomethyl)cyclohexyl]carbonyl}-4-(6-methyl-1,2,3,4-tetrahydropyrido[2,3-b]pyrazin-7-yl)-N-(2-oxo-2,3-dihydro-1H-benzimidazol-5-yl)-L-phenylalaninamide hydrochloride], for which, at human factor XIa, the IC50 worked out at 37 nM. Further, the “aPTT (concentration of test substance which brings about a 1.5-fold extension of the aPTT)” value in the test with human and animal plasma is 1.42 µmol/L.
The corresponding values for `NC[C@H]1CC[C@H](C(=O)N[C@@H](Cc2ccc(-c3ccc4c(c3)CNC4=O)cc2)C(=O)Nc2ccc(-c3nc(C(F)(F)C(F)(F)C(=O)O)n[nH]3)cc2)CC1` [Example 29, 3-[5-(4-{[N-{[trans-4-(Aminomethyl)cyclohexyl]carbonyl}-4-(1-oxo-2,3-dihydro-1H-isoindol-5-yl)-L-phenylalanyl}amino}phenyl)-1H-1,2,4-triazol-3-yl]-2,2,3,3-tetrafluoropropanoic acid hydrochloride] are 3.9 nM and 0.28 µmol/L.

The values above are taken from patent US20160280688A1, “SUBSTITUTED PHENYLALANINE DERIVATIVES” (BAYER PHARMA AKTIENGESELLSCHAFT, priority 2013, published 2016).
